Measured values published in patent publication US7638036B2, “Redox potential mediated carbon nanotubes biosensing in homogeneous format” (E. I. du Pont de Nemours and Company, priority 2004, dated 2009).
Counter-ions that a name gives are not always drawn. Like-named read-outs stand apart in the source and are kept apart here.

Experiments:
[1] = test system: Trametes versicolor laccase; experiment: Laccase inhibitor evaluation: rate of ABTS^−2 oxidation at varied inhibitor and substrate concentrations (1/V versus [I] plots); format: biochemical
Experimental: High potential quinones/quinols were screened to identify those with characteristics that would be suitable for use as an inhibitor of laccase, to be used in an activity switch.
Compounds were evaluated by varying the concentrations of inhibitor and substrate (ABTS^−2) and measuring under each condition the rate of ABTS^−2 oxidation. […] Tetrachloro-o-quinol and tetrafluoro-o-quinol, shown in Diagram I, had Kds, of 7-9 μM and 2.5 μM, respectively, as determined from the data in FIG. 12.
After the addition of sodium cyanoborohydride (6 mg, 100 nmol), the reaction mixture was stirred for an additional 2 hours, washed with water (2×0.5 mL) and dried on a rotavap.

[2] = test system: Trametes versicolor laccase; experiment: Laccase assay: ABTS^−2 oxidation followed by absorbance change at 436 nm, with and without NaF; format: biochemical; details: 1 mM NaF; 5 mM ABTS^−2 in 50 mM Glycine pH 3.0
[3] = test system: laccase Type I copper center; experiment: Laccase 600 nm absorbance peak on inhibitor binding; set-up: species or system Trametes versicolor; details: charge-transfer band of Type I copper center
Text: This conclusion was strengthened by the observation that the binding of tetrachloro-o-quinol to laccase caused a decrease in the amplitude of the laccase 600 nm absorbance peak, dominated by a charge-transfer band involving the Type I copper center and its cysteinyl ligand.

[4] = inhibitor of laccase, substrate ABTS^−2, read-out: Kd (dissociation constant of the inhibitor, −Ki at intersection point)

Row | SMILES | Kd [1, 4] [µM] | activity as laccase inhibitor ([1]; substrate ABTS^−2) | also measured
1 | CCn1c(=NN=c2sc3cc(S(=O)(=O)O)ccc3n2CC)sc2cc(S(=O)(=O)O)ccc21 [ABTS^−2, 2,2′-azino-bis(3-ethylbenz-thiazoline-6-sulfonate) diammonium salt, reference compound] |  |  | Kd ([1]; substrate binding to laccase, read-out: dissociation constant, Kd of the laccase substrate): 120 to 240 µM
2 | [F-].[Na+] [NaF] |  |  | inhibition of laccase activity [2]: 95%
3 | Oc1c(O)c(Cl)c(Cl)c(Cl)c1Cl [Tetrachloro-o-quinol] | 7 to 9 | effective inhibitor | amplitude of the laccase 600 nm absorbance peak on binding [3]: decrease
4 | Oc1c(Cl)c(Cl)c(O)c(Cl)c1Cl [tetrachloro-p-quinol, reference compound] |  | inactive as an inhibitor | 
5 | Oc1c(O)c(F)c(F)c(F)c1F [tetrafluoro-o-quinol] | 2.5 |  | 
